Experimental data reported in US9925398B2, “Angiogenic peptide” (NOVACELL TECHNOLOGY INC., priority 2008, dated 2018).

How the values were obtained:
HUVECs [1] = assay: Tube formation assay on Matrigel; assay type: cell-based, human; conditions: 24 h
Procedure: As described previously in M. S. Lee, et al., J Immunol 177 (2006), pp. 5585-5594, HUVECs were seeded on a layer of previously polymerized Matrigel with SFKLRY-NH2 (SEQ ID NO: 2), its scrambled sequence FYSRLK-NH2, S1P or VEGF in the presence or absence of VEGF neutralizing antibody. After 24 h of incubation, changes in cell morphology were observed through a phase-contrast microscope and photographed. To measure the formation of the capillary network, the total tube length per field was measured at 40× magnification with the scale. Three different fields were analyzed per well.
FIGS. 2A-2C show SFKLRY-NH2 (SEQ ID NO: 2) induces proliferation, migration, and tube formation in HUVECs. (A) The effect of SFKLRY-NH2 on proliferation of HUVECs. […] After 48 h of incubation, the activity of DNA synthesis was counted with a liquid scintillation counter. […] After wounding, HUVECs were incubated with indicated concentration of SFKLRY-NH2 (SEQ ID NO: 2) (0.1-10 μM) for 16 h and then migrated HUVECs beyond the reference line were counted. […] After incubation for 24 h, the tubular-like structures were photographed and the length of tube formation was measured. […]
FIGS. 6A-6B show anti-VEGF antibody suppress SFKLRY-NH2 (SEQ ID NO: 2)-induced tube formation in HUVECs. […] After incubation for 24 h, the tubular-like structures were photographed and the length of tube formation was measured. […]

Rat aortic explants = assay: Aortic ring assay (vessel sprouting ex vivo); assay type: cell-based; conditions: 1 μM; 7 days
Procedure: The method developed by Nicosia and Ottinetti in In Vitro Cell Dev Biol 26 (1990), pp. 119-128 was used with some modifications. Aortas were harvested from 6-week-old Sprague-Dawley rats. After removing the surrounding fibro-adipose tissues, the rings were immersed in Matrigel in wells within culture dishes. The aortic rings were cultured (5% CO2, 37° C.) in serum-free M199 containing SFKLRY-NH2 (SEQ ID NO: 2), S1P, FYSRLK-NH2, or VEGF in the presence or absence of PTX or U73122. On day 7, sprouting from aortic explants was measured.
To address whether SFKLRY-NH2 (SEQ ID NO: 2) plays a role in sprouting of vascular endothelial cells ex vivo, aortic rings were analyzed in the presence of various stimuli including 1 μM SFKLRY-NH2 (SEQ ID NO: 2), 10 ng/mL VEGF, 10 nM S1P, and 10% FBS. […] Rat aortic explants in Matrigel were incubated with M-199 harboring SFKLRY-NH2 (SEQ ID NO: 2) (1 μM), FYSRLK-NH2 (1 μM), S1P (10 nM), VEGF (10 ng/mL), SFKLRY-NH2 (SEQ ID NO: 2) (1 μM) with U73122 (10 μM) or PTX (50 ng/mL), or 10% FBS and photographed after incubation for 7 days. Three independent experiments were then conducted, each in duplicate.

HUVECs [2] = assay: [Ca2+]i increase in HUVECs; assay type: cell-based, human; conditions: 10 μM
Procedure: Cells were incubated with 4 μM Fura-2 AM and 250 μM sulfinpyrazone in serum-free DMEM medium at 37° C. for 30 min with continuous stirring. The cells were then washed with Locke's solution (M. Faehling, et al., FASEB J 16 (2002), pp. 1805-1807) and diluted to 2×10^6 cells/mL. 50 μL aliquots of cell suspension were added to each well of a 96-well plate, and the change in fluorescence ratio was determined at dual excitation wavelengths of 340 and 380 nm and emission wavelength of 500 nm following addition of peptides. Plates were read immediately following the addition of peptide pools, resulting in a time delay of approximately 5 s between peptide addition and detection by the FLEXstation (Molecular Devices). Negative and positive controls were run simultaneously with test samples to ensure that all samples were subjected to identical conditions. The calibration of the fluorescence ratio in terms of [Ca^2+]i was performed according to Grynkiewicz et al. J Biol Chem 260 (1985), pp. 3440-3450.
To verify that SFKLRY-NH2 (SEQ ID NO: 2) induces [Ca^2+]i increase in human endothelial cells, intracellular Ca^2+ mobilization in primary cultured human umbilical vein endothelial cells (HUVECs) were measured. Treatment with SFKLRY-NH2 (SEQ ID NO: 2) induced [Ca^2+]i increase in HUVECs with the half-maximal effect at 1.4±0.15 μM. […]

CCCCCCCCCCCCC/C=C/[C@@H](O)[C@@H](N)COP(=O)(O)O [S1P, sphingosine-1-phosphate]
Tube-forming activity (length of tube formation) (HUVECs [1]; 100 nM): 19.69±0.32

FYSRLK-NH2
vessel sprouting activity (outgrowth of endothelial cells) (Rat aortic explants): negligible activity
Tube-forming activity (length of tube formation) (HUVECs [1]; 10 μM): 8.96±1.14
Ca2+ mobilization (HUVECs [2]): did not trigger Ca^2+ mobilization
